Data as given in PMC3806051 (Journal of the American Chemical Society, 2013).
Where “and” joins values, the source holds several entries; their conditions need not be identical. Equal entries are not always repeated. Entries after “also recorded” stand apart in the source; their conditions may differ. Where two headings read alike, the source gives them in different places. Each block holds one compound with its values, some of them ahead of it.

Experiments:
[1] = target: recombinant human His-tagged MDM2 protein (residues 1–118) (Homo sapiens, UniProt Q00987); test: FP-based competitive protein binding assay
[2] = Interconversion of isomers in MeCN-H2O; assay type: physicochemical; details: for isomerization in CH3CN-H2O: over a period of up to four days
[3] = Isomerization in binding assay medium; assay type: physicochemical; details: for proportion of isomer in the mixture: 100 h time-point, regardless which isomer was used at the beginning; for isomerization kinetics in binding assay medium: room temperature
[4] = test system: p53 activation in SJSA-1 tumor tissue; test: Pharmacodynamic study, Western blotting of tumor tissue; assay type: in vivo, mouse; details: single oral dose 200 mg/kg; for p53 activation in tumor tissue (accumulation of p53, MDM2 and p21): Western blot
[5] = test system: SJSA-1 osteosarcoma tumor xenograft; assay type: in vivo; details: for tumor growth inhibition as compared to vehicle control: end of treatment (day 26); for weight loss or other signs of toxicity: 5a 200 mg/kg, 5b 100 and 200 mg/kg daily oral 14 days
[6] = test system: SJSA-1 osteosarcoma cell line; test: cells; details: Homo sapiens, read-out: IC50 cell growth inhibition
[7] = Isomerization in vivo in plasma and tumor tissue; details: plasma and tumor tissue of SCID mice
[8] = Tumor tissue concentration in tumor bearing SCID mice; details: for Tumor Concentration of isomer: single oral 100 mg/kg, 24 h
[9] = Plasma concentration in tumor bearing SCID mice; details: for Plasma Concentration of isomer: single oral 100 mg/kg, 24 h
[10] = Isomerization in cell culture medium; assay type: physicochemical; details: 2 days, starting from 5a or 5b
MDM2 = details: ref 6b; cited from earlier work
[11] = test system: animal models of human cancer; details: ref 6b; cited from earlier work
[12] = Stability / isomerization in organic solvents; details: CH2Cl2, THF, EtOAc, DMSO
[13] = FP competitive binding to MDM2, incubation 15 min
[14] = calculated from IC50, FP competitive binding to MDM2, incubation 15 min
[15] = binding assay medium, after 12 days

IC50 [1]: 565 ± 57 nM
Ki [1]: 76.2 ± 7.7 nM
Structure (SMILES): CNC(=O)[C@@H]1N[C@H](CC(C)(C)C)[C@]2(C(=O)Nc3cc(Cl)ccc32)[C@H]1c1cccc(Cl)c1 [2a, (2′R,3S,4′R,5′R)-6-chloro-4′-(3-chlorophenyl)-N-methyl-2′-neopentyl-2-oxospiro[indoline-3,3′-pyrrolidine]-5′-carboxamide]

Structure (SMILES): CNC(=O)[C@@H]1N[C@@H](CC(C)(C)C)[C@@]2(C(=O)Nc3cc(Cl)c(F)cc32)[C@H]1c1cccc(Cl)c1 [11b, (2′S,3R,4′R,5′R)-6-chloro-4′-(3-chlorophenyl)-5-fluoro-Nmethyl-2′-neopentyl-2-oxospiro[indoline-3,3′-pyrrolidine]-5′-carboxamide]
IC50 [1, 13]: 112 ± 12 nM
Ki [1, 14]: 14.2 ± 1.1 nM

IC50 [1]: 19500 ± 4000 nM
Ki [1]: 2700 ± 500 nM
Structure (SMILES): CCOC(=O)[C@@H]1N[C@H](CC(C)(C)C)[C@]2(C(=O)Nc3cc(Cl)ccc32)[C@H]1c1cccc(Cl)c1F [7a, (2′R,3S,4′S,5′R)-ethyl 6-chloro-4′-(3-chloro-2-fluorophenyl)-2′-neopentyl-2-oxospiro[indoline-3,3′-pyrrolidine]-5′-carboxylate]

Structure (SMILES): CC(C)(C)C[C@H]1N[C@@H](C(=O)NCC[C@H](O)CO)[C@H](c2cccc(Cl)c2F)[C@]12C(=O)Nc1cc(Cl)ccc12 [5d, (2′R,3R,4′S,5′R)-6-chloro-4′-(3-chloro-2-fluorophenyl)-N-((S)-3,4-dihydroxybutyl)-2′-neopentyl-2-oxospiro[indoline-3,3′-pyrrolidine]-5′-carboxamide]
isomerization in CH3CN-H2O [2]: gradually converted into a mixture of four isomers

IC50 [1]: 30.9 ± 2.9 nM
Ki [1]: 3.1 ± 0.3 nM
Structure (SMILES): CNC(=O)[C@@H]1N[C@@H](CC(C)(C)C)[C@@]2(C(=O)Nc3cc(Cl)ccc32)[C@H]1c1cccc(Cl)c1 [2b, (2′S,3R,4′R,5′R)-6-chloro-4′-(3-chlorophenyl)-N-methyl-2′-neopentyl-2-oxospiro[indoline-3,3′-pyrrolidine]-5′-carboxamide]

Structure (SMILES): CC(C)(C)C[C@H]1N[C@@H](C(=O)NCC[C@H](O)CO)[C@H](c2cccc(Cl)c2F)[C@@]12C(=O)Nc1cc(Cl)ccc12 [5a, (2′R,3S,4′S,5′R)-6-chloro-4′-(3-chloro-2-fluorophenyl)-N-((S)-3,4-dihydroxybutyl)-2′-neopentyl-2-oxospiro[indoline-3,3′-pyrrolidine]-5′-carboxamide]
proportion of isomer in the mixture ([3]; binding assay medium): ~40%
p53 activation in tumor tissue (accumulation of p53, MDM2 and p21) [4]: effectively activated p53
isomerization in CH3CN-H2O [2]: gradually converted into a mixture of four isomers
tumor growth inhibition as compared to vehicle control ([5]; 200 mg/kg daily oral gavage 14 days): 41%
weight loss or other signs of toxicity [5]: no significant weight loss
IC50 ([6]; SJSA-1, 24 h): 30300 ± 6230 nM
IC50 ([6]; SJSA-1, 48 h): 950 ± 160 nM
IC50 ([6]; SJSA-1, 72 h): 180 ± 20 nM
IC50 ([6]; SJSA-1, 96 h): 150 ± 30 nM
isomerization in vivo [7]: isomerizes very fast
Tumor Concentration of isomer ([8]; dosed with 5a): BLQ
Tumor Concentration of isomer ([8]; dosed with 5b): BLQ
Plasma Concentration of isomer ([9]; dosed with 5a): BLQ
Plasma Concentration of isomer ([9]; dosed with 5b): BLQ ^b

Structure (SMILES): CNC(=O)[C@@H]1N[C@@H](CC(C)(C)C)[C@@]2(C(=O)Nc3cc(Cl)ccc32)[C@H]1c1cccc(Cl)c1F [4b, (2′S,3R,4′S,5′R)-6-chloro-4′-(3-chloro-2-fluorophenyl)-Nmethyl-2′-neopentyl-2-oxospiro[indoline-3,3′-pyrrolidine]-5′-carboxamide]
IC50 [1, 13]: 25.9 ± 1.5 nM
Ki [1, 14]: 2.4 ± 0.2 nM
times more potent than the respective isomer a (binding to MDM2) ([1]; cis-cis isomer b versus trans-cis isomer a): > 15 times

Structure (SMILES): CNC(=O)[C@@H]1N[C@H](CC(C)(C)C)[C@]2(C(=O)Nc3cc(Cl)ccc32)[C@H]1c1cccc(Cl)c1F [4a, (2′R,3S,4′S,5′R)-6-chloro-4′-(3-chloro-2-fluorophenyl)-Nmethyl-2′-neopentyl-2-oxospiro[indoline-3,3′-pyrrolidine]-5′-carboxamide]
IC50 [1, 13]: 387 ± 39 nM
Ki [1, 14]: 51.8 ± 4.2 nM

Structure (SMILES): CC(C)(C)C[C@@H]1N[C@@H](C(=O)NCC[C@H](O)CO)[C@H](c2cccc(Cl)c2F)[C@]12C(=O)Nc1cc(Cl)ccc12 [5b, (2′S,3R,4′S,5′R)-6-chloro-4′-(3-chloro-2-fluorophenyl)-N-((S)-3,4-dihydroxybutyl)-2′-neopentyl-2-oxospiro[indoline-3,3′-pyrrolidine]-5′-carboxamide]
proportion of 5b of all 4 isomers [10]: approximately 50%
proportion of isomer in the mixture ([3]; binding assay medium): approximately 50%
isomerization kinetics in binding assay medium [3]: slow isomerization kinetic and was the most stable
apoptosis induction in tumor tissue (PARP cleavage, caspase-3 activation) ([4]; 24 h): stronger apoptosis induction than 5a
p53 activation in tumor tissue (accumulation of p53, MDM2 and p21) ([4]; 200 mg/kg): effectively activated p53; also recorded: clearly more potent than 5a
converted into a mixture of three other isomers ([2]; CH3CN-H2O, after 12 days): 4%
tumor growth inhibition as compared to vehicle control ([5]; 100 mg/kg daily oral gavage 14 days): 67%
weight loss or other signs of toxicity [5]: no significant weight loss
IC50 ([6]; SJSA-1, 24 h): 18100 ± 2400 nM
IC50 ([6]; SJSA-1, 48 h): 630 ± 40 nM
IC50 ([6]; SJSA-1, 72 h): 180 ± 10 nM
isomerization in vivo [7]: isomerizes slowly
Tumor Concentration of isomer ([8]; dosed with 5a): BLQ
Tumor Concentration of isomer ([8]; dosed with 5b): BLQ
tumor tissue concentration of 5b in mice dosed with 5b versus mice dosed with 5a ([8]; mouse, in vivo): 11 fold and 16 fold
Plasma Concentration of isomer ([9]; dosed with 5a): BLQ
plasma concentration of 5b in mice dosed with 5b versus mice dosed with 5a ([9]; mouse, in vivo): 7 fold and 12 fold

Structure (SMILES): CN(C)C(=O)[C@@H]1N[C@@H](CC(C)(C)C)[C@@]2(C(=O)Nc3cc(Cl)c(F)cc32)[C@H]1c1cccc(Cl)c1 [10b, (2′S,3R,4′R,5′R)-6-chloro-4′-(3-chlorophenyl)-5-fluoro-N,Ndimethyl-2′-neopentyl-2-oxospiro[indoline-3,3′-pyrrolidine]-5′-carboxamide]
IC50 [1, 13]: 835 ± 121 nM
Ki [1, 14]: 113 ± 16 nM

Structure (SMILES): CC(C)(C)C[C@@H]1N[C@@H](C(=O)NCC[C@H](O)CO)[C@H](c2cccc(Cl)c2F)[C@@]12C(=O)Nc1cc(Cl)ccc12 [5c, (2′S,3S,4′S,5′R)-6-chloro-4′-(3-chloro-2-fluorophenyl)-N-((S)-3,4-dihydroxybutyl)-2′-neopentyl-2-oxospiro[indoline-3,3′-pyrrolidine]-5′-carboxamide]
isomerized into 5b ([3]; binding assay medium, within 30 min): approximately 20%
isomerization kinetics in binding assay medium [3]: very fast isomerization kinetics
isomerization in CH3CN-H2O [2]: gradually converted into a mixture of four isomers

IC50 [1]: 498 ± 44 nM
Ki [1]: 67 ± 5.9 nM
Structure (SMILES): CC(C)(C)C[C@H]1N[C@@H](C(=O)O)[C@H](c2cccc(Cl)c2F)[C@@]12C(=O)Nc1cc(Cl)ccc12 [8a, (2′R,3S,4′S,5′R)-6-chloro-4′-(3-chloro-2-fluorophenyl)-2′-neopentyl-2-oxospiro[indoline-3,3′-pyrrolidine]-5′-carboxylic acid]

IC50 [1]: 55.1 ± 5.2 nM
Ki [1]: 6.4 ± 0.6 nM
Structure (SMILES): CC(C)(C)C[C@@H]1N[C@@H](C(=O)O)[C@H](c2cccc(Cl)c2F)[C@]12C(=O)Nc1cc(Cl)ccc12 [8b, (2′S,3R,4′S,5′R)-6-chloro-4′-(3-chloro-2-fluorophenyl)-2′-neopentyl-2-oxospiro[indoline-3,3′-pyrrolidine]-5′-carboxylic acid]

IC50 [1]: 721 ± 79 nM
Ki [1]: 97.5 ± 10.7 nM
Structure (SMILES): CCOC(=O)[C@@H]1N[C@@H](CC(C)(C)C)[C@@]2(C(=O)Nc3cc(Cl)ccc32)[C@H]1c1cccc(Cl)c1F [7b, (2′S,3R,4′S,5′R)-ethyl 6-chloro-4′-(3-chloro-2-fluorophenyl)-2′-neopentyl-2-oxospiro[indoline-3,3′-pyrrolidine]-5′-carboxylate]

remaining of starting isomer [3, 15]: 93.9%
Structure (SMILES): CN(C)C(=O)[C@@H]1N[C@@H](CC(C)(C)C)[C@@]2(C(=O)Nc3cc(Cl)ccc32)[C@H]1c1cccc(Cl)c1 [1b, (2′S,3R,4′R,5′R)-6-chloro-4′-(3-chlorophenyl)-N,N-dimethyl-2′-neopentyl-2-oxospiro[indoline-3,3′-pyrrolidine]-5′-carboxamide]

Structure (SMILES): CC(C)(C)C[C@H]1N[C@@H](C(=O)NCC[C@H](O)CO)[C@H](c2cccc(Cl)c2)[C@@]12C(=O)Nc1cc(Cl)c(F)cc12.Cl [MI-219]
binding affinity to MDM2 (MDM2): low nanomolar affinity
tumor growth in animal models of human cancer [11]: strongly inhibits tumor growth

IC50 [1]: 22.5 ± 2.2 nM
Ki [1]: 1.9 ± 0.2 nM
Structure (SMILES): CC(C)(C)C[C@@H]1N[C@@H](C(N)=O)[C@H](c2cccc(Cl)c2F)[C@]12C(=O)Nc1cc(Cl)ccc12 [9b, (2′S,3R,4′S,5′R)-6-chloro-4′-(3-chloro-2-fluorophenyl)-2′-neopentyl-2-oxospiro[indoline-3,3′-pyrrolidine]-5′-carboxamide]

Structure (SMILES): CN(C)C(=O)[C@@H]1N[C@H](CC(C)(C)C)[C@]2(C(=O)Nc3cc(Cl)ccc32)[C@H]1c1cccc(Cl)c1 [1a, (2′R,3S,4′R,5′R)-6-chloro-4′-(3-chlorophenyl)-N,N-dimethyl-2′-neopentyl-2-oxospiro[indoline-3,3′-pyrrolidine]-5′-carboxamide]
stability in aprotic solvents [12]: relatively stable
remaining of starting isomer [3, 15]: 17.6%
converted into 1b ([3]; binding assay medium, after 12 days, started with 1a): 53%
